Data from patent US8324166B2, “Neuroprotection using NAP-like and SAL-like peptide mimetics” (Ramot at Tel-Aviv University, Ltd., priority 2007, dated 2012).
Values joined by “and” are separate entries in the source; they are usually repeats but may differ in a detail not shown here. Identical values can stand only once. Ends that are not written are not given here.

How the values were obtained:
ischemic injury = conditions: after ischemic injury; cited from earlier work
[1] = in vivo; cited from earlier work
[2] = system: closed head injury in mice; conditions: cited from earlier work
[3] = system: cell cultures exposed to a wide variety of toxins; conditions: against a wide variety of toxins; cited from earlier work
beta III tubulin = beta III tubulin (Homo sapiens, UniProt Q13509); conditions: affinity chromatography; cited from earlier work
Sequence of beta III tubulin (Q13509 whole entry): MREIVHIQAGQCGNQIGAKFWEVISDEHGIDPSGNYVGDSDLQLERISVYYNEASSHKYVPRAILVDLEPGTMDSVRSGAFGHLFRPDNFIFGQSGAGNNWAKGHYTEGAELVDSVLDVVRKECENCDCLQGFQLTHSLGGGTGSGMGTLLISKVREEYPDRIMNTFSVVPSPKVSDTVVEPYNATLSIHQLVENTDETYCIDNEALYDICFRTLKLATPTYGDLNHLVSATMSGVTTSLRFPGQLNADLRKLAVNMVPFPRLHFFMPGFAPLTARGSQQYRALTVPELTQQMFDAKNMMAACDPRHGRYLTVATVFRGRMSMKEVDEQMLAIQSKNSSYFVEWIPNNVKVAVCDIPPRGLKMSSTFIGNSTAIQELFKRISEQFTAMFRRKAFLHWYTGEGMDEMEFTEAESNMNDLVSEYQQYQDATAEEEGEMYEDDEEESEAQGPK
Sequence of beta III tubulin (Q71U36 whole entry partner): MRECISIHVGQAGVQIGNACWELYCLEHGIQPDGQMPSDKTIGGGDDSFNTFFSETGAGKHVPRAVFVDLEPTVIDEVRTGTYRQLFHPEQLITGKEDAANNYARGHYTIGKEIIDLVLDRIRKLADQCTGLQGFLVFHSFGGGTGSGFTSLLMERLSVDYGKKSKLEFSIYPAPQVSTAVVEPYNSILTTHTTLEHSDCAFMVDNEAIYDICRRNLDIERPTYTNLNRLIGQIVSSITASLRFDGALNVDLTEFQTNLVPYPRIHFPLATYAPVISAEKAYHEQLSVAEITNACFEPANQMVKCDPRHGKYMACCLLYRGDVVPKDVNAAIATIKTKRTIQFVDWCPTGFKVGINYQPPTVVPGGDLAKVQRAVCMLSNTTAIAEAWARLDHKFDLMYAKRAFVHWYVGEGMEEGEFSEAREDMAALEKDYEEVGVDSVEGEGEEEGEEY

[4] = system: model of fetal alcohol syndrome; conditions: in vivo, ip; cited from earlier work
normal aging rats = conditions: intranasal administration; cited from earlier work
[5] = system: animal models simulating parts of the Alzheimer's disease pathology; conditions: in vivo; cited from earlier work
[6] = system: neurons of the central nervous system; conditions: in vitro assays and in vivo disease models; cited from earlier work
[7] = system: neurons in mixed neuroglial cultures intoxicated with beta-amyloid 1-42; test: MAP2 assay: neuronal survival in mixed neuroglial cultures following beta-amyloid intoxication; format: cell-based, rat
Experimental: Newborn rats were used to prepare cerebral cortical astrocytes cell cultures as described above. After suspending the cells in D1, they were centrifuged at 100 g for 5 minutes and the supernatant discarded. The cell pellet was resuspended in solution D2 containing 5% heat inactivated horse serum (Biological Industries, Beit Haemek, Israel), 0.1% gentamycin, 0.1% penicillin-streptomycin-nystatin, 1% N3 (defined medium components essential for neuronal development in culture, (Romijn HJ, Brain Res., 254:583-9 (1981)]), 15 μg/ml 5′-fluoro-2-deoxyuridine (FUDR, Sigma, Rehovot, Israel), and 3 μg/ml uridine (Sigma, Rehovot, Israel) in DMEM. Cells were counted in a hemocytometer, diluted in D2 and 17,000 cells/well/96 well plate were seeded on 8-day-old astrocytes prepared as described above. The medium was changed the next day to D2 without FUDR and uridine. Cells were allowed to grow for one week at 37° C. 10% CO2 before experiments were performed.
Neuronal survival in neuroglial cultures following beta-amyloid intoxication was assayed using the neuron specific antibody, MAP2. […] The cells were incubated for 5 days in 10% CO2 at 37°C.
5 days after the addition of beta-amyloid and the peptide, the cells were fixed by removing the media from each well and the addition of cold methanol. The cells were left in the refrigerator overnight. The cells were immunostained with anti-MAP2 as previously described (Brooke S M et al., Neurosci. Lett., 267:21-4(1999)): the methanol was removed and the cells were washed 4 times with phosphate buffered saline (PBS). Blocking for non-specific antibody binding was performed by incubating the cells in 5% non-fat milk in PBS overnight at 4° C. The blocking solution was then removed and anti-MAP2(1:1000; Sigma, Rehovot, Israel) was added to each well. The cells were incubated for 30 minutes at room temperature, followed by 4 washes with PBS. Biotinylated anti-mouse IgG (1:200, Vector Laboratories, Burlingame, Calif., USA) was then added to each well, and the cells were incubated for 30 minutes at room temperature followed by 4 washes with PBS. The cells were incubated at room temperature for 30 minutes with the ABC reagent (Vector Laboratories, Burlingame, Calif., USA) prepared according to the manufacturer's protocol and then washed 4 times with PBS. ABTS reagent, prepared according to the manufacturer's protocol (Vector Laboratories, Burlingame, Calif., USA) was then added to each well and the cells were incubated for 20 minutes in the dark at room temperature. The plates were read in an ELISA plate reader at 405nm. As blanks, wells containing untreated cells and no primary antibody were used.

[8] = system: cerebral cortical astrocytes intoxicated with ZnCl2; test: MTS assay: survival of astrocytes following intoxication with ZnCl2; format: cell-based, mice
Experimental: Cell cultures were prepared as previously described (McCarthy KD, de Vellis J., J. Cell Biol., 85:890-902 (1980); Gozes I et al., J. Pharmacol. Exp. Ther., 257:959-66 (1991)). Newborn mice (Harlan Biotech Israel Ltd., Rehovot, Israel) were sacrificed by decapitation and the brain was removed. The cortex was dissected and meninges were removed. The tissue was minced with scissors and placed in Hank's balanced salts solution X1 (HBSS, Biological Industries, Beit Haemek, Israel), 15 mM HEPES Buffer pH 7.3 (Biological Industries, Beit Haemek, Israel) and 0.25% trypsin (Biological Industries, Beit Haemek, Israel) in an incubator at 37° C. 10% CO2 for 20 minutes. The cells were then placed in 8 ml of solution D1 containing 10% heat inactivated fetal calf serum (Biological Industries, Beit Haemek, Israel), 0.1% gentamycin sulphate solution (Biological Industries, Beit Haemek, Israel) and 0.1% penicillin-streptomycin-nystatin solution (Biological Industries, Beit Haemek, Israel) in Dulbecco's modified Eagle's medium (DMEM, Sigma, Rehovot, Israel). The cells were allowed to settle, and were then transferred to a new tube containing 2.5 ml of D1 and triturated using a Pasteur pipette. The process was repeated twice more. Once all the cells were suspended, cell density was determined using a hemocytometer (Neubauer improved, Germany) and 1×10^6 cells/15 ml D1 were inoculated into each 75 cm^2 flask (Corning, Corning, N.Y., USA). Cells were incubated at 37° C. 10% CO2. The medium was changed after 24 hours and cells were grown until confluent (one week).
The flasks containing the cerebral cortical astrocytes were shaken to dislodge residual neurons and oligodendrocytes that may be present. Flasks were then washed with 10 ml cold HBSSx1, HEPES15 mM. 5 ml versene-trypsin solution (BioLab, Jerusalem, Israel) was added to each flask and the flasks were incubated at room temperature for 5 minutes to remove astrocytes. The flasks were then shaken to dislodge the cells. The versene-trypsin solution was neutralized with 5 ml D1. The cell suspension was collected and centrifuged at 100 g for 10 minutes. The supernatant was removed and the cells resuspended in D1. The cells were plated in 96 well plates (Corning, Corning, N.Y., USA) (each flask to 2 plates) and incubated until confluent at 37° C. 10% CO2.
The survival of astrocytes following intoxication with ZnCl2 was tested using the MTS assay. One week after sub-culturing the astrocytes into 96-well plates, the astrocyte growth medium was aspirated and fresh medium containing 200μM ZnCl2 and ascending concentrations of NATLSHIHQ (SEQ ID NO:4) or STPTAIPQ (SEQ ID NO:6)(concentration range: 10^−16-10^−7M) was added to the cells. The cells were incubated for 4 hours in 10% CO2 at 37°C., followed by an MTS assay using Celltiter 96 Aqueous non-radioactive cell proliferation assay (Promega, Madison, WI, USA) which was performed according to the manufacturer's instructions and read in an ELISA plate reader at 490nm.

## Asn-Ala-Pro-Val-Ser-Ile-Pro-Gln [NAP]
Ischemic injury
  infarct volume and motor function deficits: reduced infarct volume and motor function deficits
[1]
  crossing of the blood-brain barrier: can cross the blood-brain barrier
[2]
  damage caused by closed head injury: reducing damage
[3]
  neuroprotective activity in cell cultures: neuroprotective activity at femtomolar concentrations
Beta III tubulin
  interaction with tubulin: specifically interact with beta III tubulin
[4]
  fetal death after intraperitoneal injection of alcohol: inhibited
Normal aging rats
  performance in the Morris water maze: improved performance
[5]
  protection in Alzheimer's disease models: protective

## SALLRSIPA
[6]
  neuron survival in response to various insults: keep neurons of the central nervous system alive

## STPTAIPQ (synthetic NAP-like peptide)
[7]; MAP2 assay, 5 days, tested 10^−19M to 10^−5M, significance vs negative control in cell
  effective concentrations on neuronal survival: Neurons (25 μM beta-amyloid): 10^−13 M and 10 ^−5 M
[7]; neuroglial cells, beta-amyloid
  activity in neuroprotection assay: active
[8]; MTS assay, 4 hours, tested 10^−16-10^−7M, significance vs negative control in cell
  effective concentrations on astrocyte survival: Astrocytes (200 μM ZnCl2): 10^−7 (p < 0.05) M
[8]; astrocytes, ZnCl2
  activity in neuroprotection assay: active
